Entries after “also recorded” stand apart in the source; their conditions may differ.
Key:
RPMI-8226 = experiment: NCI SRB GI50 screen; type: cell-based; conditions: Homo sapiens, Leukemia, 48 hrs exposure, read-out: Growth Inhibition GI50 RPMI-8226
Procedure: 2-Anilino nicotinyl linked 2-amino benzothiazole conjugates of formula 9-12 were tested against fifty nine human cancer cell lines derived from nine cancer types (leukemia, non-small cell lung cancer, colon cancer, CNS cancer, melanoma, ovarian cancer, renal cancer, prostate cancer and breast cancer) as per NCI protocol. For each compound, dose response curves for individual cell lines were measured at a minimum of five concentrations at 10 fold dilutions. A protocol of 48 hrs continuous drug exposure was used, and a sulforhodamine B (SRB) protein assay was used to estimate cell viability or growth.

HL-60 cells [1] = experiment: Flow cytometric analysis of reactive oxygen species (DCFH-DA); type: cell-based, human; conditions: 1 μM, 24 hr, HL-60
Procedure: It was clear that these compounds were cytotoxic and induce apoptosis in HL-60 cells, now we have to found out the early events which were responsible for the induction of apoptosis like reactive oxygen species (ROS) or nitric oxide (NO) generation. Intracellular peroxide (ROS) in the cells was measured by DCFH-DA by using flow cytometry. Cells were incubated with tested compounds at 1 μM for 24 h in HL-60 cells and analyzed by flow cytometry after double staining with DCFH-DA (FIG. 7). Cells were analyzed for fluorescence intensity in FL1 vs. cell count. There was hardly any DCF fluorescence (ROS positive cells) in the untreated HL-60 cells, and this status remained unchanged when cells were incubated for 24 hr with compounds 7 and 8. […] Compounds 4 and 6 also induce the generation of peroxide in HL-60 cells (31 and 16% increase, respectively).

MCF-7 [2] = experiment: SRB percentage growth inhibition (NCI protocol); type: cell-based; conditions: Homo sapiens, MCF7, 48 hrs exposure
Procedure: (§1) 2-Anilino nicotinyl linked 2-amino benzothiazoles conjugates of formula 4-8 have been tested against ten and eleven human cancer cell lines for 10 and 1 μM respectively derived from nine cancer types (leukemia, non-small cell lung cancer, colon cancer, CNS cancer, melanoma, ovarian cancer, renal cancer, prostate cancer and breast cancer) as per NCI protocol. For each compound, percentage of growth inhibition was calculated for individual cell lines at a minimum of two concentrations (1 and 10 μM). A protocol of 48 hrs continuous drug exposure was used, and a sulforhodamine B (SRB) protein assay was used to estimate cell viability or growth. The percentage of growth inhibition compared with the control was calculated in table 1 and table 2.

DU145 = experiment: SRB percentage growth inhibition (NCI protocol); type: cell-based; conditions: Homo sapiens, DU-145, 48 hrs exposure
Procedure: as §1

502713 = experiment: SRB percentage growth inhibition (NCI protocol); type: cell-based; conditions: Homo sapiens, 48 hrs exposure
Procedure: as §1

SK-NS-H = experiment: SRB percentage growth inhibition (NCI protocol); type: cell-based; conditions: Homo sapiens, SK-N-SH, 48 hrs exposure
Procedure: as §1

A549 = experiment: SRB percentage growth inhibition (NCI protocol); type: cell-based; conditions: Homo sapiens, 48 hrs exposure
Procedure: as §1

HEP-2 = experiment: SRB percentage growth inhibition (NCI protocol); type: cell-based; conditions: Homo sapiens, 48 hrs exposure
Procedure: as §1

Sw-620 = experiment: SRB percentage growth inhibition (NCI protocol); type: cell-based; conditions: Homo sapiens, 48 hrs exposure
Procedure: as §1

HCT-15 [3] = experiment: SRB percentage growth inhibition (NCI protocol); type: cell-based; conditions: Homo sapiens, 10 μM, 48 hrs exposure
Procedure: as §1

SiHa [4] = experiment: SRB percentage growth inhibition (NCI protocol); type: cell-based; conditions: Homo sapiens, 48 hrs exposure
Procedure: as §1

IGR-OV-1 = experiment: SRB percentage growth inhibition (NCI protocol); type: cell-based; conditions: Homo sapiens, IGROV-1, 48 hrs exposure
Procedure: as §1

PC-3 = experiment: SRB percentage growth inhibition (NCI protocol); type: cell-based; conditions: Homo sapiens, 48 hrs exposure
Procedure: as §1

OVCAR-5 = experiment: SRB percentage growth inhibition (NCI protocol); type: cell-based; conditions: Homo sapiens, 48 hrs exposure
Procedure: as §1

IMR-32 = experiment: SRB percentage growth inhibition (NCI protocol); type: cell-based; conditions: Homo sapiens, 48 hrs exposure
Procedure: as §1

HL-60 cells [5] = experiment: Loss of mitochondrial membrane potential (Rh-123 uptake); type: cell-based, human; conditions: 1 μM, 48 h
Procedure: Rhodamine-123 uptake into mitochondria is driven by mitochondrial Transmembrane potential (Ψmt) that allows the determination of cell population with active integrated mitochondrial functions. Loss of Ψmt leads to depolarization of mitochondrial membranes leading to collapse of mitochondrial functions ensuing cell death. The loss of Ψmt indicated the loss of mitochondrial integrity to couple electrons to energy production. HL-60 cells exposed to tested compounds for 48 h at 1 μM were analyzed for Rh-123 uptake by flow cytometry. The percentage of cells with low Rh-123 quantum fluorescence indicative of loss of Ψmt was calculated among the total acquired cell events (10,000). In the untreated control cells, more than 90% cells were functionally active with high Rh-123 signals (FIG. 9).

PC-3 cells = experiment: Fluorescent microscopic (DAPI) analysis of cell death; type: cell-based, human; conditions: PC-3, 1 μM, 24 h
Procedure: (§2) The mechanism of cell death was also studied in HL-60 and PC-3 cells by fluorescent microscopic studies. The PC-3 cells were treated with compd. 8 as in case of HL-60 cells. For fluorescent DAPI staining, air dried smears of cells on glass slides were fixed in absolute methanol at −20° C. for 20 min and stained with DAPI (Sigma) at 1 μg/ml at room temperature for 20 min in the dark and mounted with 90% glycerol in PBS and observed under fluorescent microscope (Olympus).
(§3) Morphological changes of HL-60 and PC-3 cells in response to this compound 8 were observed. The untreated cells were having large sized nuclei.

HL-60 [6] = experiment: as above; type: cell-based, human; conditions: HL-60, 1 μM, 24 h, data not shown
Procedure: as §2, §3

MCF-7 [7] = experiment: MTT inhibition of cell proliferation; type: cell-based; conditions: Homo sapiens, MCF7, 48 h
From the text: (§4) In order to determine the mode of action of cell death in cancer cells, first we explored the cytotoxic potential of different structural analogs of benzothiazoles on different human cancer cell lines. […] These compounds have limited or no cytotoxicity to cervical cancer SiHa, HeLa cells, breast cancer MCF-7 cells and colon cancer HCT-15 cells.

HCT-15 [8] = experiment: MTT inhibition of cell proliferation; type: cell-based; conditions: Homo sapiens, 48 h
From the text: as §4

SiHa [9] = experiment: MTT inhibition of cell proliferation; type: cell-based; conditions: Homo sapiens, 48 h
From the text: as §4

HL-60 [10] = experiment: MTT inhibition of cell proliferation; type: cell-based; conditions: Homo sapiens, 48 h
From the text: as §4

Hela = experiment: MTT inhibition of cell proliferation; type: cell-based; conditions: Homo sapiens, 48 h
From the text: as §4

HL-60 cells [11] = experiment: Cell cycle analysis (FACS) by flow cytometry; type: cell-based, human; conditions: 1 μM, up to 24 h
From the text: The damage was more apparent with compound 8 and 6 (90% and 60% DNA damaged, respectively).

Compound `COc1ccc2nc(NC(=O)c3cccnc3Nc3cc(OC)c(OC)c(OC)c3)sc2c1` [Compound 12, N-3-(6-methoxy-1,3-benzothiazol-2-yl)-2-(3,4,5-trimethoxyanilino) nicotinamide] has a GI50 (RPMI-8226) of 9.94 µM.

In the case of `O=C(Nc1nc2ccc([N+](=O)[O-])cc2s1)c1cccnc1Nc1cc(F)c(F)c(F)c1` [Compound 8, N3-(6-nitro-1,3-benzothiazol-2-yl)-2-[(3,4,5-trifluorophenyl)amino]-3-pyridine carboxamide], the “DCF fluorescence (ROS positive cells), in words” value (HL-60 cells [1]) is reported as “unchanged”, the inhibition at 1 µM (MCF-7 [2]) is reported as 46% and the inhibition at 1 µM (DU145; 1 μM) is reported as 58%. The inhibition at 10 µM (DU145; 10 μM) was 39%, the inhibition at 10 µM 502713 was 80% and the inhibition at 10 µM (SK-NS-H) was 49%. For the same compound, the inhibition at 1 µM (A549; 1 μM) was 27%, the inhibition at 10 µM (A549; 10 μM) was 27% and the inhibition at 1 µM (HEP-2; 1 μM) was 49%. The inhibition at 10 µM (HEP-2; 10 μM) was 0%, the inhibition at 1 µM (Sw-620; 1 μM) was 29% and the inhibition at 10 µM (Sw-620; 10 μM) was 70%. It also gave an inhibition at 10 µM (HCT-15 [3]) of 62%, an inhibition at 10 µM (SiHa [4]) of 70% and an inhibition at 1 µM (IGR-OV-1) of 42%. It also gave an inhibition at 1 µM (PC-3) of 41%, an inhibition at 1 µM (OVCAR-5; 1 μM) of 37% and an inhibition at 10 µM (OVCAR-5; 10 μM) of 52%. The inhibition at 1 µM (IMR-32; 1 μM) was 48%, the inhibition at 10 µM (IMR-32; 10 μM) was 72% and the “loss of mitochondrial membrane potential” value (HL-60 cells [5]) was 45%. For the same compound, the “nuclear morphology (DAPI)” value (PC-3 cells) was “fragmentatation of nuclei due to apoptosis; also recorded: condensation and fragmentation of nuclei”, the “nuclear morphology (DAPI)” value (HL-60 [6]) was “fragmentatation of nuclei due to apoptosis” and the IC50 (MCF-7 [7]) was over 100 µM. It also gave an IC50 (HCT-15 [8]) of over 100 µM, an IC50 (SiHa [9]) of 36 µM and an IC50 (HL-60 [10]) of 80 nM. The IC50 (Hela) was over 100 µM and the “DNA damaged (sub-G0 fraction)” value (HL-60 cells [11]) was 90%.
